Experimental data reported in US20080057010A1, “METHOD FOR SKIN CARE” (NULIV SCIENCE LTD., priority 2006, published 2008).

Key:
[1] = test system: collagen I; assay: Collagen I expression and secretion in human HDF cells (western blot); format: cell-based; conditions: relative to 0 = 1.00
Description: (§1) Primary human dermal fibroblasts cells (HDF) were purchased from Cascade Biologics (Portland, Oreg., USA) and cultured in medium 106 supplemented with 10% fetal bovine serum (FBS), 100 IU/mL penicillin, 100 μg/mL of streptomycin. The cells from passages 4 to 10 were used for this study. Culture medium was replaced every other day. After confluence, the cells were subcultured following trypsinization. For subcultures cells were harvested after brief treatment with 0.1% trypsin/EDTA solution and seeded at a dilution of 1:10. The cells were seeded at 1×10^5 cells in 6-well culture plate for 24 h before treated with astragalosides or crude extracts, such as butanol fraction and water insoluble fraction of Astragalus membranaceus for the indicated time periods. Control cultures were maintained in medium supplemented with vehicle (dimethyl sulfoxide, DMSO, 0.1%). No growth and differentiation effects of DMSO were observed under these culture conditions.
(§2) The cells were treated with pure compounds such as astragaloside I (AS 1), astragaloside II (AS2), astragaloside III (AS3), astragaloside IV (AS4), astragaloside VI (AS6), isoastragaloside I (isoAS1), isoastragaloside II (isoAS2), and cycloastragenol 6-O-β-D-glucopyranose (AA) at concentrations of 0-10 μM. Alternatively, the cells were also treated with the crude extracts, such as butanol fraction and water insoluble fraction of Astragalus membranaceus at concentrations of 0, 1, 10, and 40 μg/mL. The cells were treated with the indicated compounds or the extracts for 24 h before harvested for analysis of collagen I and III expressed in the whole cell extract or secreted into the culture medium.
(§3) Western blot analysis was carried out on both of cultured medium and cell lysates. The cells were plated on 6-cm dishes at a density of 1×10^6 cells/dish for 24 h prior to treatment with indicated concentrations of astragalus triterpenoids as indicated for another 48 h. The conditioned culture mediums were then centrifuged, 2-fold concentrated and collected for assay of collagens and MMPs secreted into the culture medium. The cells were washed and lysed in 0.2 mL of lysis buffer (1% NP-40, 50 mM Tris-HCl, pH 7.4, 180 mM NaCl, 1 mM EDTA, 1 mM PMSF, 1 mM NaF, 10 mM Na3VO4) for 30 min at 4° C. After centrifuging at 17500 g for 15 min, the supernatants of cell lysate were also collected. Protein concentration of the samples were measured using the bicinchoninic acid (BCA) protein assay kit according to the manufacturer's protocol (Pierce, Rockford, Ill., USA). Equal amount of protein samples of concentrated conditioned medium (100 μg) or cell lysate supernatants (50 μg) were mixed with an appropriate volume of 4×SDS sampling buffer and separated by 8% SDS-PAGE gel. The protein bands separated in the SDS-PAGE gel were blotted onto a polyvinylidene fluoride (PVDF) membrane. The blotted PVDF membrane was washed twice and blocked in freshly prepared Tris-buffered saline (TBS) containing 0.1% Tween-20 and 7% skim milk (TBST) for 2 h at room temperature. The PVDF membrane was then incubated with either antibodies against collagen I and III or the housekeeping protein α-tubulin (Santa Cruz Biotechnology, Santa Cruz, Calif.) for 18 h at 4° C. Horseradish peroxidase-conjugated anti-goat antibody was used as secondary antibody. Signals were visualized by an enhanced chemiluminescence kit (Clonetech, Palo Alto, Calif., USA) followed by exposure to X-ray films.
The collagen expression in the human HDF cells was also determined. […] And Collage I was over-expressed in the cells treated with various doses (1, 10, 40 μg/mL) of the crude extracts, such as butanol fraction and water insoluble fraction of Astragalus membranaceus.

[2] = test system: HaCaT cells; assay: Glucosamine uptake assay in HaCaT cells; format: cell-based, human; conditions: 0.1 μM
Description: In glucosamine uptake test, HaCaT cells were seeded into 24-well plate at a density of 3×10^4 cells/well and cultured for 24 h. The cells were then treated in the absence (solvent control) or presence of various concentrations of astragalosides for another 48 h. The treated cells were then washed twice with PBS and incubated in glucose and serum free medium (GSFM). After 2 h, the cells were replaced with fresh GSFM containing 0.2 μCi of [^14C]-Glucosamine (American Radiolabelled Chemicals Inc, ARC, St. Louis, Mo., USA). At the designated time interval, the cells were washed twice with GSFM containing cold glucosamine and then lysed in 200 μL 2% SDS. Cell lysates were centrifuged at 15000 g for 15 min. Intracellular uptaken glucosamine was determined by transferring 10 μL of the cell lysate to filter-bottemed UniFilter plates (Perkim-Elmer) and counted. Protein concentration of the samples was measured using the BCA protein assay kit as described above. Glucosamine accumulated in the cells was calculated and normalized to protein concentration and uptake rate was expressed as counts per minute per microgram of cell protein (cpm/min/μg).

[3] = test system: collagen III; assay: Collagen III expression and secretion in human HDF cells (western blot); format: cell-based; conditions: relative to 0 = 1.00
Description: as §1, §2, §3

[4] = test system: MMP-1; assay: Quantitative analysis of MMP-1 transcripts in HDF cells (qRT-PCR); format: cell-based, human; conditions: 0.1 μM, MMP-1 mRNA relative to 0 = 1.00
Description: Relative levels of MMP-1 expression in HDF cells were determined by qRT-PCR. Preparation of total RNA and cDNA were carried out as described in previous sections. qRT-PCR was performed using the Applied Biosystem 7300 system and pre-developed Taqman Gene Expression Assays (Applied Biosystems, Foster City, Calif., USA). The reaction was performed as described in previous sections except that primer mix for human MMP-1 (assay ID HS00233958_m1, Applied Biosystems) and GAPDH (assay ID Hs99999905_m1, Applied Biosystems) were used.
Results shown in Tables 6A and 6B represent the quantitated data from zymography analysis of MMP-2 protein in HaCaT cells and qRT-PCR for MMP-1 in HDF cells. The concentrations used were 0, 0.01. 0.1, 1 μM (if not indicated otherwise) for pure compounds; and were 0, 1, 10, 40 μg/mL for crude extract (if not indicated otherwise). The cells were treated with the indicated compounds for 24 h before harvested for analysis of Pro-MMP-2 or activated MMP-2 in whole cell extract. Fifty micrograms of the cell extract samples were used for electrophoresis.

[5] = test system: collagen I; assay: Collagen I expression in human HaCaT cells (western blot); format: cell-based; conditions: relative to 0 μM = 1.00
Description: The Spontaneously transformed human keratinocyte cell lines HaCaT cells were grown at 37° C. in a humidified incubator under 5% CO2 and 95% air in culture medium such as Dulbecco Modified Eagle Medium (DMEM) supplemented with 10% Fetal Bovine Serum (FBS), 100 IU/mL penicillin, 100 μg/mL of streptomycin, 2 mM sodium pyruvate and 1% Non-Essential Amino Acids (NEAA). The culture medium was replaced every other day. After confluence, the cells were subcultured following trypsinization. For subcultures cells were harvested after brief treatment with 0.1% trypsin/ethylenediaminetetraacetic acid (EDTA) solution and seeded at a dilution of 1:10. Cells between passages 12 and 45 were used for studies. The cells were seeded and incubated for 24 h before treated with the astragalosides for 24 h. Control cultures were maintained in medium supplemented with vehicle (dimethyl sulfoxide (DMSO) 0.1%). No growth and differentiation effects of DMSO were observed under these culture conditions.
as §2, §3
Results shown represent the quantitated data from western blot analysis. […] The collagen I was also over-expressed in the human HaCaT cells treated with 40 μg/mL of astragaloside extract.

[6] = test system: MMP-1; assay: UV-B-induced MMP-1 expression in human HDF cells (western blot, FIG. 1); format: cell-based; conditions: 50 mJ/cm^2 UV-B, positive control (FIG. 1 lane 3)
Description: To characterize the effects of astragalosides on the expression level of MMPs in human cells, HDF or HaCaT cells were first treated with or without various concentrations of astragalosides for 24 h. The cells were washed with phosphate-buffered saline (PBS) and irradiated with 10-100 mJ/cm^2 of UV-B (312 nm) for HDF-1 and HaCaT cells, respectively, using the UV light irradiator (UVItec unlimited, Cambridge, England). The cells were then washed and incubated with serum free medium for 24 h before harvested for analysis. The effect of astragalosides on MMPs levels was analyzed by western blot and the activity of MMPs was analyzed by zymography. All trans retinoic acid (atRA) was used as a positive control to suppress the UV-B-induced MMPs activation and expression.
Human HDF cells were treated with the indicated concentrations of water insoluble fraction of Astragalus membranaceus for 24 h. The cells were then irradiated with 50 mJ/cm^2 of UV-B. After 24 h, the cells were harvested for western blot analysis. […] Thus, the water insoluble fraction of Astragalus membranaceus is a potential agent for the prevention and treatment of skin aging as a result of UV irradiation.

Row | Compound | Collagen I in cell ([1]; 0.01 μM) | Collagen I in medium ([1]; 0.01 μM) | Collagen I in cell ([1]; 0.1 μM) | Collagen I in medium ([1]; 0.1 μM) | Collagen I in cell ([1]; 1 μM) | Collagen I in medium ([1]; 1 μM) | Uptake rate (glucosamine) ([2]; 48 h treatment) | Percentage (%) of control glucosamine uptake ([2]; relative to control) | Collagen III in medium ([3]; 0.01 μM) | Collagen III in medium ([3]; 0.1 μM) | Collagen III in medium ([3]; 1 μM) | MMP-1 Q-PCR [4] | Collagen I in cell ([5]; 0.01 μM) | Collagen I in cell ([5]; 0.1 μM) | Collagen I in cell ([5]; 1 μM) | UV-mediated induction of MMP-1 expression [6]
1 | CC(C)(O)C1CC[C@](C)(C2[C@@H](O)C[C@@]3(C)C4C[C@H](OC5OC(CO)C(O)C(O)C5O)C5C(C)(C)[C@@H](O)CCC56CC46CC[C@]23C)O1 (stereo partly drawn) [AA, cycloastragenol 6-O-β-D-glucopyranose] | 1.04 | 0.97 | 1.85 | 0.95 | 1.17 | 1.52 | 0.9445 ± 0.0823 CPM/μg protein | 114.59% | 1.03 | 1.62 | 1.34 | 0.76 | 2.57 | 3.34 | 3.47 | 
2 | CC1=C(/C=C/C(C)=C/C=C/C(C)=C/C(=O)O)C(C)(C)CCC1 [atRA, All trans retinoic acid] |  |  |  |  |  |  |  |  |  |  |  |  |  |  |  | blocked
